Data: patent publication US20240156790A1, “COMPOUNDS, COMPOSITIONS, AND METHODS FOR MODULATING FERROPTOSIS AND TREATING EXCITOTOXIC DISORDERS” (THE TRUSTEES OF COLUMBIA UNIVERSITY IN THE CITY OF NEW YORK, priority 2018, published 2024)
Entries after “also recorded” stand apart in the source; their conditions may differ.

How the values were obtained:
[1] = Plasma stability, pig (Table 1); assay type: in vitro ADME
[2] = Human; value marked ^1, Hofmans et al., 2016; cited from earlier work
[3] = GSH adduct formation (GSH trapping) assay; assay type: in vitro ADME
From the text: We then tested PHB4082 in a GSH adduct formation assay and the Ames test.

[4] = In vivo pharmacokinetic study of TH-4-55-2 in drinking water (four days); set-up: species or system R6/2 mice; details: both sexes, R6/2, mouse, brain, oral, 20-30 mg/kg/day, 4-day treatment, read-out: concentration in brain samples
Method: TH-4-55-2 and 42 uM Citric acid were dissolved in 5% DMSO, 5% ethanol, and 90% PBS rendering a final concentration of 0.29 mg/mL Th-4-55-2 in drinking water. The mice drink ˜2 mL water per day, and the resulting dosage was around 20-30 mg/kg/day. C57BL/6 mice at ˜8 weeks of age were treated using drinking water daily for four days. 6 mice were randomly picked, weighed daily, the weight recorded, and the change in body weight compared to the baseline, pre-injection weight was calculated. Any mouse that lost more than 20% of its baseline body weight for three consecutive days was euthanized prior to the completion of the study. Mice were euthanized by CO2 asphyxiation for 3 min after administration. Approximately 0.5 mL of blood was collected via cardiac puncture and immediately put in K3 EDTA microtubes and kept on ice. Brains were harvested, placed in Eppendorf tubes, and frozen on dry ice. […]
Prior to LC-MS analysis, the samples were resuspended in 100 μL methanol and centrifuged for 5 minutes at 14,000×g at 4° C. The supernatant was analyzed via SYNAPT High Resolution Mass Spectrometer.
Samples from animal studies were analyzed via UPLC-MS using a Waters SYNAPT XS Mass spectrometer equipped with an Acquity UPLC. […] All samples were injected twice and the base peak chromatogram was integrated and quantified by a standard curve concurrently ran using MassLynx software and exported. […]

Question: With `CCOC(=O)c1ccc(NC2CCCCC2)c(N)c1` [Fer-1, Ferrostatin-1, reference compound] as the compound, how does the “Plasma Stability at six hours (% remaining)” value [1] read?
Answer: Its value is “Pig: 100%”.

Question: What about the “Microsomal Stability t1/2” value [2] of the same compound?
Answer: The value was 6.9 ± 0.2 min.

Question: With `Cc1noc(-c2ccc(NC3CCCCC3)c(NC3CCCCC3)c2)n1` [PHB4082, N1,N2-dicyclohexyl-4-(3-methyl-1,2,4-oxadiazol-5-yl)benzene-1,2-diamine] as the compound, how does the “GSH adduct formation / trapping result” value [3] read?
Answer: The value was “positive in a GSH trapping assay; also recorded: positive in the GSH adduct formation assay”.

Question: Which concentration at 4 days [4] does the source give for `CCC(CC)Nc1cc(-c2nc(C)no2)cnc1NC1CCCCC1` [TH-4-55-2, N^2-cyclohexyl-5-(3-methyl-1,2,4-oxadiazol-5-yl)-N^3-(pentan-3-yl)pyridine-2,3-diamine] here?
Answer: The concentration at 4 days was 1.5 to 33 µM.
